Activity calls are given as the source filed them.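 Rule for the calls: active = fitted curve crossing a set activation limit at or below the highest valid dose tested; inconclusive = flat fit at 30 to 70% activation, or poor fit; inactive = the rest, including signal decreases.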
The compounds below were run on D54 ERlucT glycosylation luciferase reporter, luminescence, 24 h (assay: blockers of NLG process in reporter cells – D54 ERlucT cells, luminescence, cherry-picks, dose response (AID 624491);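 note: signal gain reflects blocked N-linked glycosylation of a luciferase reporter; actives raise luciferase signal so AC26 marks activators of the reporter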).

SMILES	AC26
CC(=O)Nc1ccc(CNc2ncnc3ccc(-c4c(C)noc4C)cc23)cc1	290 nM
COc1ccc(C=CC(=O)c2c(OC)cc(OC)c(OC)c2O)cc1	4040 nM
CC(C)N(CC(=O)Nc1ccc(Cl)cc1C(F)(F)F)C(=O)CCl	14500 nM
COc1cccc(/C=N/NC(=O)c2cc3c(OC)c(OC)ccc3[nH]2)c1OC	5850 nM
C=CCn1c(SCc2c(C)noc2C)nc2sc3c(c2c1=O)CCC(C)C3 (stereo not given)	2060 nM
CCN1C(=O)c2cccc3c(S(=O)(=O)NCC4CCCO4)ccc1c23 (stereo not given)	2990 nM
CC(C)c1c(C(=O)Nc2ccccc2)c(-c2ccccc2)c(-c2ccc(F)cc2)n1CC[C@@H](O)C[C@@H](O)CC(=O)O	68.2 nM
CCN(CC)CCCNc1nc2ccccc2c2nc(-c3ccncc3)nn12	2320 nM
CC(=O)c1c(C)[nH]c(C(=O)Nc2cccc(S(=O)(=O)N3CCCC3)c2)c1C	2610 nM
COc1ccc(/C=N/NC(=O)c2sccc2OCc2ccc(F)cc2)cc1OC	1310 nM
Cc1nn(-c2ccccc2)c2c1CC(=O)Nc1ccccc1-2	329 nM
Cc1ccc(C(=O)N/C(=C/c2cccs2)C(=O)NCCc2c[nH]c3ccccc23)cc1	1080 nM
CC(=O)Nc1cc(-c2cccc(C(=O)N(C)C)c2)cn2c(-c3cccc(C(=O)N(C)C)c3)cnc12	897 nM
c1cnc2nc3c4ccccc4c4ccccc4c3nc2c1	10200 nM
CCN(CC)CCn1c2ccccc2c2nc3ccccc3nc21	1950 nM
COc1ccc(-c2cc(-c3ccc(O)cc3)nc(N)c2C#N)cc1OC	4050 nM
COc1cc2c(cc1OC)C(c1ccccc1)N(C(=O)c1ccccc1)CC2 (stereo not given)	869 nM
COc1ccc(NC(=O)C(=O)NCCC2CCCCN2S(=O)(=O)c2ccccc2)cc1 (stereo not given)	5680 nM
COc1cc2c(cc1OC)CN(c1ccc(C(F)(F)F)cn1)CC2	4710 nM
Cc1[nH][nH]c(=O)c1C(c1ccc(-c2cccc(Cl)c2)o1)c1c(C)[nH][nH]c1=O	< 1.2 nM
Cc1ccc2nc(-c3ccccc3)cc(C(=O)N3CC(C)OC(C)C3)c2c1 (stereo not given)	2450 nM
O=c1cc(-c2ccccc2)[nH]c2ccccc12	433 nM
COC(=O)c1ccc(C)c(NC(=O)CN(c2cc(OC)ccc2OC)S(C)(=O)=O)c1	641 nM
CCc1nnc2n1N=C(c1ccc(OC)cc1)CS2	6840 nM
COC1C(O)C(C)OC(OC2C(Oc3cccc4c(O)c5c(=O)oc6ccc(C)c7c(=O)oc(c34)c5c67)OC(C)C(O)C2O)C1O (stereo not given)	1000 nM
COc1ccc2noc3c2c1C(=O)c1ccccc1-3	441 nM
CC(=O)Nc1ccc(NC(=O)c2ccc(-c3c(C)noc3C)c3ccoc23)cc1	1350 nM

SMILES	AC26
O=C1NC(=O)N(c2ccccc2)C(=O)/C1=C\C=C\c1ccccc1	679 nM
COc1ccccc1C(=O)Nc1ccc2c(c1)nc(CCNC(=O)c1ccco1)n2C	1550 nM
CN(C)c1ccc(/C=C/C(=O)c2ccc(C(C)(C)C)cc2)cc1[N+](=O)[O-]	5570 nM
O=C(CN1C(=O)NC(c2ccccc2)(c2ccccc2)C1=O)Nc1ccc(N2CCOCC2)cc1	4200 nM
COc1ccc(F)cc1-c1cc(NC(C)=O)c2ncc(-c3cc(OC)c(OC)c(OC)c3)n2c1	11300 nM
O=C(Cc1ccc(-c2ccccc2)cc1)NCc1cccnc1	12400 nM
NNC(=O)c1oc2nc(-c3cccs3)cc(-c3ccco3)c2c1N	2640 nM
COCCNC(=O)c1cc(-c2ccccc2OC)on1	9620 nM
CCNc1ccc(Br)cc(C(=O)/C=C/c2ccc(Cl)cc2)c1=O	6710 nM
O=CC1=C(c2ccccc2)Oc2ccccc2O1	10300 nM
O=C(Nc1ccc(Cc2ccncc2)cc1)c1ccc([N+](=O)[O-])o1	1150 nM
COc1ccc(-c2n[nH]c3c2CN(C(=O)c2ccc(OC)c(OC)c2)CC3)cc1	1760 nM
O=c1[nH]c(O)c(/C=C2/C=CC(c3cc(Cl)ccc3Cl)=N2)c(=O)[nH]1	2610 nM
Cn1c(=O)c2cc(NC(=O)CCc3ccccc3)ccc2n1-c1ccccc1F	1780 nM
Cn1c(=O)cc2c3c(c(N4CCCCC4)ccc31)C(=O)c1ccccc1-2	4360 nM
COc1cc2c(cc1OC)C(C)N(C(=O)Nc1cc(C)cc(C)c1)CC2 (stereo not given)	6970 nM
Clc1ccc(CSc2cnnc3ccccc23)cc1Cl	13500 nM
O=C(NCCCN1CCOCC1)c1cc(-c2ccccc2)on1	5780 nM
COc1cc2c(cc1OC)C(c1ccccc1)N(C(=O)c1ccco1)CC2 (stereo not given)	315 nM
CCOc1ccc(OCC)c(NC(=O)c2nnn(CC(=O)Nc3cc(C)cc(C)c3)c2N)c1	6440 nM
O=C(COc1ccccc1CNCc1ccccc1)Nc1ccccc1	850 nM
CC(=O)Nc1ccc2cc3ccc(NC(C)=O)cc3nc2c1	5210 nM
COc1ccc2c(c1)C(=O)N1[C@H]3c4cc(C)ccc4OC[C@@H]3[C@H](c3ccccc3)[C@]1(C)C(=O)N2	358 nM
CC(Nc1nc(-c2ccccc2)nc2ccccc12)c1ccccc1 (stereo not given)	80.3 nM
CCOc1ccc(C(=O)n2cc(C(=O)OC)c3ccccc32)cc1	> 19500 nM (inactive)
CC(=O)Nc1cccc(NC(=O)c2ccccc2OCc2ccccc2)c1	1350 nM
COc1cc2cnc(-c3ccccc3)cc2cc1OC	2360 nM

SMILES	AC26
COc1cccc(C(=O)Nc2ccc(N3CCN(C(=O)c4ccco4)CC3)cc2)c1	10700 nM
CCOc1ccc2nc(NCCNC(=O)Nc3cccc(C)c3)c(C#N)cc2c1	4010 nM
CC#CCN1c2ccccc2[C@]23C[C@@H](C(=O)OC)N(C(=O)c4cc(C)oc4C)C2=NC(C(=O)OC)=C(C(=O)OC)[C@H]13	1790 nM
Cc1ccc(C2=NN(C(=O)CSc3nccn3C)C(c3ccco3)C2)cc1 (stereo not given)	6070 nM
COc1ccc(S(=O)(=O)Nc2ccc3c(c2)n(C)c(=O)n3C)cc1C	9910 nM
Clc1cccc(N2Cc3cc(-c4ccccc4)ccc3-n3nncc3C2)c1	3580 nM
CC(C)c1ccc(OCc2ccc(C(=O)N3CCCC3)o2)cc1	4230 nM
CC(=O)NC(=C(Cl)Cl)S(=O)(=O)c1ccccc1	1080 nM
Cc1cc(-n2c(SCC(=O)NCCC3=CCCCC3)nc3n[nH]c(C)c3c2=N)ccc1Cl	4030 nM
COc1ccc2c(c1)CCc1c(C(=O)Nc3cc(C)n(Cc4ccc(Cl)cc4)n3)noc1-2	3370 nM
CCn1c2ccccc2c2cc(NC(=O)COC(=O)C3CCC(=O)N3)ccc21 (stereo not given)	3400 nM
COc1ccc(-c2cc3ccccc3oc2=O)cc1NC(=S)NC(=O)c1ccc2c(c1)OCCO2	3970 nM
CC(C)(C)c1ccc(OCc2ccc(C(=O)N3CCOCC3)o2)cc1	2160 nM
CCN(CC)CCCNc1cc(C)c(C#N)c2nc3ccccc3n12	17000 nM
Cc1ccccc1NC(=O)Cn1nnc(C(=O)NCc2ccco2)c1N	1770 nM
Cn1cc(/C=N/n2cnc3scc(-c4ccc(Cl)cc4)c3c2=O)c2ccccc21	58.4 nM
CCN(CC)S(=O)(=O)c1cccc(NC(=O)CN2C(=O)NC3(CCC(C)CC3)C2=O)c1 (stereo not given)	876 nM
CC(=O)c1cccc(Nc2cc(C)nc3c(C)cc(C)cc23)c1	4210 nM
COc1cc(NC(=O)c2noc(C)c2[N+](=O)[O-])c(OC)cc1Cl	632 nM
COc1ccc([C@H]2CC(=O)C=C(c3c(OC)cccc3OC)C2)cc1	3260 nM
COc1cccc(-c2nn(-c3ccccc3)cc2/C=C\C(=O)c2cccs2)c1	1360 nM
COC(=O)c1ccc(C(=O)NC2CC(C)(C)Cc3c2cnn3-c2ccc(F)cc2)nc1 (stereo not given)	4170 nM
COc1ccc2c(c1)OC[C@H]1[C@H]2N2C(=O)c3ccc(C)cc3NC(=O)[C@@]2(C)[C@H]1c1ccccc1	926 nM
CCOc1ccc(S(=O)(=O)NCc2cccnc2)cc1NC(=O)c1ccccc1F	9740 nM
C[C@H](CO)N1C[C@H](C)[C@@H](CN(C)S(=O)(=O)c2ccccc2)Oc2c(NC(=O)Cc3ccccc3)cccc2C1=O	3400 nM
Cc1ccc2c(c1)C(=O)N1[C@H]3c4cc(Cl)ccc4OC[C@@H]3[C@H](c3ccccc3)[C@]1(C)C(=O)N2	1260 nM
C[C@@]12C(=O)Nc3cc(F)c(F)cc3C(=O)N1[C@H]1c3ccccc3OC[C@@H]1[C@@H]2c1ccccc1	784 nM

SMILES	AC26
CC(=O)c1cccc(-c2ccnc3c2CC(C(=O)NCC2CCOCC2)O3)c1 (stereo not given)	2070 nM
O=C(C[C@@H]1C/C=C/CC[C@H](Cc2ccc(F)cc2)C(=O)OC[C@@H](Cc2ccccc2)NC1=O)N[C@H](CO)Cc1ccccc1	4880 nM
CC(C)CN(C(=O)COC(=O)CCSc1ccc(Cl)cc1)c1c(N)n(Cc2ccccc2)c(=O)[nH]c1=O	4450 nM
C=CCN=C(SCC(=O)c1ccc(Cl)cc1)c1c(O)n(C)c(=O)n(C)c1=O	2340 nM
COC(=O)Nc1nc2ccc(-c3n[nH]c(=O)c4ccccc34)cc2[nH]1	3350 nM
C=CCn1c(O)c(C(CC)=NC(C)c2ccccc2)c(=O)[nH]c1=O (stereo not given)	3140 nM
CCOc1ccc(Br)cc1C(=O)Nc1ccc(C(=O)NCC(C)C)cc1	4090 nM
CCOC(=O)c1[nH]c(C)c(C(=O)Nc2ccc(C)cc2C)c1C	494 nM
COc1ccccc1/C=N/NC(=O)c1cc2c(OC)c(OC)ccc2[nH]1	495 nM
CN(C)c1ccc(-c2ccnc3c2CC(C)(C(=O)NCc2ccccc2)O3)cc1 (stereo not given)	5530 nM
CC(=O)Nc1sc(NC(=O)c2ccccc2)nc1-c1cccs1	3450 nM
O=C(/C=C/c1c[nH]c2ccccc12)c1cccc2ccccc12	5410 nM
c1ccc(-c2cc(-c3nnc4n3N=C(c3ccc5ccccc5c3)CS4)[nH]n2)cc1	2110 nM
O=c1[nH]c(=O)n(C2CC(O)C(CO)O2)cc1Br (stereo not given)	1490 nM
COc1cc(OC)cc(C(=O)c2c(C)c(C#N)c3ccccn23)c1	1220 nM
CC1(C(=O)Nc2ccc(Cl)cc2)Cc2c(-c3cccc(C(N)=O)c3)ccnc2O1 (stereo not given)	15400 nM
Cc1cccc(Nc2nc(N)nc(-c3oc4ccccc4c3C)n2)c1	7050 nM
COc1cc(C(=O)Nc2cc3c(cc2N2CCCCC2)n(C)c(=O)n3C)cc(OC)c1OC	3870 nM
O=C(C[C@H]1C/C=C\C[C@H](Cc2ccc(F)cc2)C(=O)O[C@@H](c2ccccc2)CNC1=O)N[C@@H](CO)Cc1ccccc1	892 nM
CC(C)Oc1ccccc1C1CC(=O)Nc2cc3c(cc21)OCCO3 (stereo not given)	844 nM
Cc1ccc(-n2c(SCC(=O)NCCC3=CCCCC3)nc3n[nH]c(C)c3c2=N)cc1Cl	6130 nM
COc1ccc(-c2[nH]nc(-c3ccccc3)c2-c2nc3ccccc3[nH]2)cc1	3900 nM
O=C1NC(=O)N(Cc2ccccc2)C(=O)/C1=C/C=C/c1ccco1	1080 nM
COc1cc(C2C(C#N)=C(N)Oc3cc(O)ccc32)cc(OC)c1OC (stereo not given)	1020 nM

— PubChem BioAssay AID624491 (Broad Institute, 2012)
